What was measured:
[1] = test system: ShHTL1-AtMAX2 interaction; conditions: Y2H dilution series, 5 μM ligand
From the text: (§1) Full-length sequences of ShD14, ShHTL1, ShHTL3, ShHTL4, ShHTL7, and AtHTL were cloned into the pGBKT7 vector as bait (Clontech), and the coding regions of ShMAX2 and AtMAX2 were cloned into the pGADT7 vector as prey (Clontech). MAX2 was supposed to be unstable without ASK1. Therefore, AtASK1 was cloned into the N terminus of ShMAX2 and AtMAX2 with a 16-residue linker for co-expression. The bait and prey plasmids were co-transformed into the yeast (Saccharomyces cerevisiae) strain Y2HGold (Clontech) by the lithium acetate-mediated method. The presence of both plasmids was confirmed by growth on SD/-Leu/-Trp (-LT) plates. […] The plates were incubated for 5 days at 30 °C.
(§2) and AtHTL were detected using an anti-GST antibody, as indicated by the black arrows. (b)
(§3) 1/10, 1/20, 1/50, 1/100, 1/1000) of transformed yeast cells was plated on control medium (SD/-
(§4) Leu/-Trp; -LT) and selective medium (SD/-Leu/-Trp/-His/-Ade; -LTHA) in the absence or
(§5) (1 picture or pasted object on this page, not shown here)

[2] = test system: ShHTL1–ShMAX2 interaction; conditions: Y2H dilution series, 5 μM ligand
From the text: as §1, §2, §3, §4, §5

ShHTL4 = experiment: ITC binding to ShHTL4; design: species or system Striga hermonthica; conditions: 3 mM KAR1 into 150 μM protein
Method: The binding assays were performed using a MicroCal iTC200 isothermal titration calorimeter (GE Healthcare). Prior to the ITC experiments, concentrated ShD14, ShHTL1, ShHTL4, and ShHTL7 were exchanged into a buffer consisting of 20 mM HEPES (pH 8.0) and 150 mM NaCl to remove dithiothreitol and were then adjusted to a final concentration of 150 μM. The sample cell was filled with protein solution (204 μL). Nineteen consecutive 2.0-μL aliquots of 3 mM KAR1 (3-methyl-2H-furo [2,3-c] pyran-2-one) were injected into a prepared protein solution at 150 s intervals at 20 °C. The first injection volume was 0.4 μL, and the observed thermal peak was excluded from the data analysis. A negative control was obtained by titrating 3 mM KAR1 into the buffer (20 mM HEPES, pH 8.0, 150 mM NaCl) in the same manner. Data fitting was performed in “one set of sites” mode, and KD values were calculated using Origin software provided by MicroCal.
Supplementary Figure 3. Binding analyses of ShHTLs and ShD14 with KAR1. The ITC
assays were performed by adding 3 mM KAR1 to 150 μM ShHTL1 (a), ShHTL4 (b), ShHTL7
(c), ShD14 (d) and AtHTL (e).
ShHTL1 and AtHTL were fitted using the MicroCal origin software with the “one binding site”
model. The ITC assays titrating KAR1 into ShHTL1 and AtHTL were repeated three times
independently (data not shown).

AtHTL–AtMAX2 interaction = AtHTL–AtMAX2 interaction (Arabidopsis thaliana, UniProt Q9SZU7); conditions: pull-down, 50 μM ligand, western blotting
Chain of AtHTL–AtMAX2 interaction (Q9SZU7 whole entry): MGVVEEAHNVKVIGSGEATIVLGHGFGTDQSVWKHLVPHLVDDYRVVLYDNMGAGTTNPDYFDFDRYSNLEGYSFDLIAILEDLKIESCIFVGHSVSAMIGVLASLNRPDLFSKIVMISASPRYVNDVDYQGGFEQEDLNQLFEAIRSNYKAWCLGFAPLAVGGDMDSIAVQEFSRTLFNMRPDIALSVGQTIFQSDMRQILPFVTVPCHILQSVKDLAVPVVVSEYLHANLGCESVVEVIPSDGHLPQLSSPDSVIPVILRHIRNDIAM
Method: as §2, §3, §4, §5

[3] = test system: ShHTL3–ShMAX2 interaction; experiment: Y2H assay ShHTL3-ShMAX2; format: cell-based, Striga hermonthica; conditions: 5 μM ligand
From the text: as §1

Structure (SMILES): Cc1c2ccocc-2oc1=O [KAR1, 3-methyl-2H-furo [2,3-c] pyran-2-one]
- ligand effect on ShHTL1-AtMAX2 interaction [1]: significant difference between the control and the presence of KAR1 or rac-GR24 was not observed
- ligand effect on ShHTL1-ShMAX2 interaction [2]: significant difference between the control and the presence of KAR1 or rac-GR24 was not observed
- KAR1 binding ability of ShHTL4 (ShHTL4): no significant KAR1 binding ability
- ligand effect on AtHTL-AtMAX2 interaction (AtHTL–AtMAX2 interaction): did not interact with AtMAX2 in a KAR1-dependent manner
- ligand-induced ShHTL3-ShMAX2 interaction [3]: failed to interact with ShMAX2 in the presence of KAR1

Reference: paper PMC6158167 (Nature Communications, 2018)
